Some test systems named below: A498 renal; HCT-15 colon; M14 melanoma; NCI-H522 lung; SK-MEL-2 melanoma; SN12C renal; SNB-19 CNS; SNB-75 CNS; SR leukemia; UACC-62 melanoma.
Test in all cases: inhibition of tumour cell growth, NCI panel, 48 h

Where “and” joins values, the source holds several entries; their conditions need not be identical. Equal entries are not always repeated.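 A five-concentration, 48-hour dose response in 96-well plates underlies each endpoint, interpolated linearly between surrounding concentrations. Abbreviation: GI50, concentration required for 50% inhibition of growth. TGI: concentration producing complete growth inhibition.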

Take `O=C1/C(=C/c2cccc([N+](=O)[O-])c2)COc2ccc(O)c(O)c21`: the GI50 is 1.42 µM in the test on A498 renal; 0.569 µM in the test with HCT-15 colon; 1.81 µM in the test on M14 melanoma; 0.281 µM in the test with NCI-H522 lung; 2 µM with SK-MEL-2 melanoma; 1.16 µM with SN12C renal. The GI50 in the test with SNB-19 CNS is 1.55 µM; in the test on SNB-75 CNS, 1.28 µM; in the test with SR leukemia it was 0.364 µM; in the test with UACC-62 melanoma it was 1.57 µM. Also, the TGI with A498 renal was determined as 3.26 µM; in the test on HCT-15 colon, 2.76 µM; with M14 melanoma it was 4.27 µM; in the test on NCI-H522 lung, 1.36 µM; in the test with SK-MEL-2 melanoma it was 4.35 µM; in the test on SN12C renal, 2.51 µM. The TGI in the test with SNB-19 CNS was found to be 2.98 µM; in the test with SNB-75 CNS it was 5.72 µM; with SR leukemia it was 7.94 µM; in the test on UACC-62 melanoma, 2.98 µM.

As for `COc1ccc(C(=O)Cn2c(C(=O)c3ccc(Cl)cc3)nc3ccccc32)cc1`, the GI50 in the test on A498 renal is 14.3 µM; with HCT-15 colon, 3.88 µM; in the test on M14 melanoma, 3.69 µM; in the test with NCI-H522 lung, 10.3 µM; in the test with SK-MEL-2 melanoma it was more than 32.7 µM; with SN12C renal it was 97.8 µM. In addition, the GI50 with SNB-19 CNS is 46.5 µM; in the test with SNB-75 CNS it was 20.9 µM; in the test with SR leukemia it was 2.2 µM; in the test with UACC-62 melanoma, more than 28.4 µM. Also, the TGI is more than 100 µM in the test with A498 renal; more than 100 µM with HCT-15 colon; more than 39.3 µM with M14 melanoma; more than 100 µM in the test on NCI-H522 lung; more than 100 µM in the test with SK-MEL-2 melanoma; more than 100 µM in the test with SN12C renal. In addition, the TGI was more than 100 µM with SNB-19 CNS, more than 100 µM in the test on SNB-75 CNS, more than 22.4 µM in the test with SR leukemia and more than 100 µM in the test with UACC-62 melanoma.

Take `CC(C)C[C@H](NC(=O)[C@H](Cc1ccccc1)n1ccc(N2CCCCC2)cc1=O)B(O)O`: the GI50 in the test on A498 renal is 0.127 µM; with HCT-15 colon it was 1.61 µM; with M14 melanoma, 0.356 µM; with NCI-H522 lung it was 0.305 µM; with SK-MEL-2 melanoma it was 0.46 µM; in the test on SN12C renal it was 1.5 µM. Moreover, the GI50 was 0.956 µM with SNB-19 CNS, 0.461 µM in the test with SNB-75 CNS, 0.259 µM with SR leukemia and 0.458 µM in the test on UACC-62 melanoma. The TGI in the test with A498 renal is 0.736 µM; in the test on HCT-15 colon, 22.1 µM; with M14 melanoma, 3.88 µM; with NCI-H522 lung it was 2.25 µM; with SK-MEL-2 melanoma, 4.56 µM; in the test with SN12C renal it was 11.1 µM. For the same compound, the TGI was more than 100 µM in the test with SNB-19 CNS, 3.82 µM in the test with SNB-75 CNS, 11.6 µM in the test on SR leukemia and 2.44 µM with UACC-62 melanoma.

Take `Cc1ccc(NC(c2ccccc2)c2ccc3cccnc3c2O)cc1` (stereo unspecified): the TGI in the test on A498 renal worked out at 54.8 µM; in the test on HCT-15 colon, 14.4 µM; in the test with M14 melanoma it was 19 µM; with NCI-H522 lung it was 8.53 µM; with SK-MEL-2 melanoma it was 21 µM; in the test on SN12C renal, 22.4 µM. Further, the TGI with SNB-19 CNS was determined as 20 µM; in the test with SNB-75 CNS it was 19.2 µM; in the test on SR leukemia it was 14.4 µM; in the test with UACC-62 melanoma it was 18.3 µM.

As to `Cc1ccc(S(=O)(=O)N/N=C(\CCN2CCCC2)CC(c2ccccc2)c2c(O)c3ccccc3oc2=O)cc1` (stereo unspecified), the TGI with A498 renal, with HCT-15 colon, in the test on M14 melanoma, in the test on NCI-H522 lung, in the test with SK-MEL-2 melanoma and in the test on SN12C renal was more than 100 µM throughout. In addition, the TGI in the test with SNB-19 CNS, in the test with SNB-75 CNS, with SR leukemia and in the test with UACC-62 melanoma was more than 100 µM throughout.

As to `C/C(=N\N=C(N)N)C(CN(CC(C)C)CC(C)C)C(=O)Nc1ccc(C)cc1C` (stereo unspecified), the TGI in the test with A498 renal, in the test on HCT-15 colon, in the test on M14 melanoma, in the test with NCI-H522 lung, with SK-MEL-2 melanoma and in the test on SN12C renal was more than 100 µM in each case. Also, the TGI with SNB-19 CNS, with SNB-75 CNS, with SR leukemia and in the test with UACC-62 melanoma was more than 100 µM in each case.

Turning to `CC1=C(C)C(=O)c2c(c(C(=O)c3ccccc3)c3nc4ccccc4n3c2C)C1=O`, the GI50 in the test on A498 renal was more than 100 µM; in the test on HCT-15 colon, more than 100 µM; in the test on M14 melanoma, more than 100 µM; in the test on NCI-H522 lung, more than 100 µM; in the test with SK-MEL-2 melanoma, 47.8 µM; in the test with SN12C renal, more than 100 µM. The GI50 in the test with SNB-19 CNS was 38.1 µM; in the test with SNB-75 CNS it was 15.8 µM; in the test with SR leukemia, more than 100 µM; in the test with UACC-62 melanoma it was 35 µM. Also, the TGI in the test with A498 renal, in the test with HCT-15 colon, in the test with M14 melanoma, in the test on NCI-H522 lung, in the test with SK-MEL-2 melanoma and in the test on SN12C renal was more than 100 µM in each case. Moreover, the TGI with SNB-19 CNS is more than 100 µM; with SNB-75 CNS, 40.3 µM; in the test with SR leukemia, more than 100 µM; with UACC-62 melanoma, more than 100 µM.

Take `Cc1[nH]c(=O)[nH]c(=O)c1N(CCF)CCCl`: the GI50 in the test on A498 renal was 247 µM and 311 µM; in the test on HCT-15 colon, 182 µM and 310 µM and 186 µM; in the test on SK-MEL-2 melanoma it was 239 µM; with SN12C renal, 159 µM and 120 µM and 312 µM; in the test on SNB-19 CNS, 711 µM and 250 µM; in the test with SNB-75 CNS it was 268 µM and 592 µM and 493 µM. In the test on UACC-62 melanoma, the GI50 is 173 µM and 360 µM. In addition, the TGI is 507 µM and 466 µM and 967 µM in the test on A498 renal; 503 µM and 486 µM and 1330 µM in the test with HCT-15 colon; 767 µM with M14 melanoma; 375 µM and 416 µM and 519 µM in the test on NCI-H522 lung; 447 µM and 832 µM and 808 µM with SK-MEL-2 melanoma; 480 µM and 641 µM and 1020 µM in the test on SN12C renal. In addition, the TGI in the test on SNB-19 CNS is 1160 µM and 2500 µM and 1820 µM; in the test on SNB-75 CNS it was 617 µM and 1420 µM and 1010 µM; in the test on SR leukemia it was 1870 µM; in the test on UACC-62 melanoma, 419 µM and 1040 µM and 673 µM.

For the compound `O=C(O)c1ccc(S(=O)(=O)c2ccccc2)c([N+](=O)[O-])c1`, the TGI with A498 renal, in the test with HCT-15 colon, in the test on M14 melanoma, with NCI-H522 lung, in the test with SK-MEL-2 melanoma and with SN12C renal was more than 100 µM throughout. The TGI in the test on SNB-19 CNS, with SNB-75 CNS, in the test with SR leukemia and in the test with UACC-62 melanoma was more than 100 µM throughout.

Take `COc1cccc(-c2nn(-c3ccccc3)cc2-c2ccnc(NCCNS(=O)(=O)c3ccc(Cl)cc3)c2)c1`: the GI50 in the test on A498 renal is 3.4 µM; with HCT-15 colon it was 3.86 µM; in the test on M14 melanoma it was 4.15 µM; with NCI-H522 lung, 2.47 µM; with SK-MEL-2 melanoma it was 3.84 µM; with SN12C renal it was 5.45 µM. Moreover, the GI50 is 7.44 µM in the test with SNB-19 CNS, 7.92 µM with SNB-75 CNS, 2.25 µM with SR leukemia and 5.51 µM in the test with UACC-62 melanoma. Moreover, the TGI with A498 renal was more than 100 µM; in the test on HCT-15 colon, more than 100 µM; with M14 melanoma it was more than 100 µM; with NCI-H522 lung, 9.76 µM; with SK-MEL-2 melanoma, 26.9 µM; in the test with SN12C renal, more than 100 µM. Further, the TGI is more than 100 µM in the test with SNB-19 CNS, more than 100 µM in the test with SNB-75 CNS, 6.59 µM with SR leukemia and more than 100 µM in the test with UACC-62 melanoma.

On to `O=[N+]([O-])c1cnc(Sc2ccncn2)c([N+](=O)[O-])c1`, for which the GI50 in the test on A498 renal is 24.9 µM; in the test with HCT-15 colon it was 2.78 µM; in the test with M14 melanoma, 5.81 µM; in the test with NCI-H522 lung, 1.82 µM; in the test on SK-MEL-2 melanoma, 16.8 µM; with SN12C renal, 16 µM. Besides, the GI50 with SNB-19 CNS is 32.8 µM; with SNB-75 CNS, 14.4 µM; with SR leukemia, 2.67 µM; in the test with UACC-62 melanoma it was 10.5 µM. For the same compound, the TGI in the test with A498 renal was 65.3 µM; in the test on HCT-15 colon it was 11.2 µM; in the test on M14 melanoma it was 19 µM; in the test with NCI-H522 lung it was 3.45 µM; with SK-MEL-2 melanoma, 32.9 µM; in the test on SN12C renal, 29.9 µM. Further, the TGI in the test with SNB-19 CNS is more than 100 µM; in the test on SNB-75 CNS, 27.7 µM; with SR leukemia it was more than 100 µM; in the test on UACC-62 melanoma, 22.3 µM.

For the compound `CC(C)C[C@@H](NC(=O)[C@@H](Cc1ccccc1)NC(=O)c1cnccn1)B1O[C@H]2[C@H](O)[C@@H](C(=O)NCCCC[C@@H]3NC(=O)[C@@H](Cc4ccccc4)NC(=O)[C@H](CC(=O)O)NC(=O)CNC(=O)[C@H](CCCN=C(N)N)NC3=O)O[C@@H](CN)[C@H]2O1`, the GI50 in the test on A498 renal was 0.00309 µM and 0.005 µM; in the test with HCT-15 colon, 0.0113 µM and 0.00703 µM; in the test with M14 melanoma it was 0.00392 µM and 0.005 µM; with NCI-H522 lung it was 0.0033 µM and < 0.005 µM; in the test with SK-MEL-2 melanoma it was 0.00702 µM and 0.005 µM; with SN12C renal, 0.0117 µM and 0.013 µM. The GI50 in the test with SNB-19 CNS is 0.0136 µM and 0.005 µM; with SNB-75 CNS, 0.0188 µM; in the test on SR leukemia, 0.00261 µM; in the test with UACC-62 melanoma, 0.00439 µM and 0.005 µM. Besides, the TGI in the test with A498 renal is 0.0127 µM and 0.0106 µM; in the test on HCT-15 colon, 0.0659 µM and 0.0376 µM; in the test with M14 melanoma, 0.116 µM and 0.0141 µM; in the test with NCI-H522 lung it was 0.0115 µM and < 0.005 µM; in the test with SK-MEL-2 melanoma, 0.0604 µM and 0.0123 µM; in the test with SN12C renal, 0.055 µM and 0.485 µM. For the same compound, the TGI in the test on SNB-19 CNS is 5.12 µM; with SNB-75 CNS it was 0.0516 µM; with UACC-62 melanoma it was 0.0408 µM and 0.014 µM.

Values taken from PubChem BioAssay (NCI).
